{"source": "patent US20260337125A1", "about": "“RADIOLABELED TYROSINE DERIVATIVE AND APPLICATION THEREOF” (Osaka University, priority 2022, published 2026)", "key": {"HEK293-hLAT1": {"biological_target": "HEK293-hLAT1 (Homo sapiens, UniProt Q01650)", "sequence (Q01650 whole entry)": "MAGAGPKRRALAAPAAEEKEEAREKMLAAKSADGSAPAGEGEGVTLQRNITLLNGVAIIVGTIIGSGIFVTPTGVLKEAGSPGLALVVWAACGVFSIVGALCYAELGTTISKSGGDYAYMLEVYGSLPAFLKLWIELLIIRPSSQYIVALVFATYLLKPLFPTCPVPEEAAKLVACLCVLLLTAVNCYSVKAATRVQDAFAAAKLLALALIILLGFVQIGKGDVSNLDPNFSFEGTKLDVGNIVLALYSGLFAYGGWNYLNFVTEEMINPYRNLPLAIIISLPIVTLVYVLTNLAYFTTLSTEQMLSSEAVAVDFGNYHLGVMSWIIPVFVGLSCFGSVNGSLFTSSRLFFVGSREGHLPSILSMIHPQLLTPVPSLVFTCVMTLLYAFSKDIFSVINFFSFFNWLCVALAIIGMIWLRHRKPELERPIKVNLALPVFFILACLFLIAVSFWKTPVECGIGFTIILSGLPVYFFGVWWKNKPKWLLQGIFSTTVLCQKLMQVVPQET", "sequence (P08195 102-630 partner)": "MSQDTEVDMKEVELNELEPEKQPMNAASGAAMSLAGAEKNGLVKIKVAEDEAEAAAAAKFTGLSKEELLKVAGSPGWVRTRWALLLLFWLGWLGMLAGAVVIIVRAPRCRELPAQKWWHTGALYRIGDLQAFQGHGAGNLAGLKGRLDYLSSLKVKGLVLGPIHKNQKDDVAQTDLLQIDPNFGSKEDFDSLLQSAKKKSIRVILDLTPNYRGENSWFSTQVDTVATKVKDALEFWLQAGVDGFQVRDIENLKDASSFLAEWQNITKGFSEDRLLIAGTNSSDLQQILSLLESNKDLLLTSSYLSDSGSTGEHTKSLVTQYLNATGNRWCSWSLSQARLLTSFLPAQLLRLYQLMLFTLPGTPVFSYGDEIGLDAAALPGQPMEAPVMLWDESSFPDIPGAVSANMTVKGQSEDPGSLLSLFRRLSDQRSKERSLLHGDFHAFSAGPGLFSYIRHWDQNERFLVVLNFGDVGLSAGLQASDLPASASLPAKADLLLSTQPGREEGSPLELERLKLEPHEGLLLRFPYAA", "test": "Cellular uptake test (Using HEK293)", "type": "cell-based", "protocol": "• Cells to be Used: HEK293-Mock, HEK293-hLAT1, HEK293-hLAT2 (HEK293: Human Embryonic Kidney cells 293) • Culture medium to be used: E-MEM (containing 10% FBS, 1% P/S, 1% NEAA)\nTwo days before a test day, a cell suspension was prepared in such a manner that the concentration of predetermined cells was 1×10^5 cells/mL. The cell suspension was seeded in a 24-well multiculture plate at a volume of 0.5 mL per well. On the day of the test, cultures were confirmed to be subconfluent (which refers to a state where 70-80% of the well is covered in density). The cells were washed twice with warmed PBS(-) Buffer (166-23555, FUJIFILM Wako Pure Chemical Corporation), the culture medium was replaced with HBSS(-) Buffer (085-09355, FUJIFILM Wako Pure Chemical Corporation), and the plate was left to stand in an incubator (MINIcell-35, WakenBtech Co., Ltd) until an RI addition test.\n^211At-AAMT-OMe or ^211At-AAMT was added to the prepared cells at 10 μL/well. BCH (LAT1 inhibitor, 20 mM) or unlabeled AMT (α-methyl tyrosine, 1 μg/mL) was previously (15 minutes before) added ([…]). The cells were cultured (CO2 5%, 37 °C), and after 30 minutes, the liquid was removed by suction using an aspirator. The cells were washed twice with PBS(-). The cells were lysed by adding 0.1N NaOH to obtain a lysate, and the radioactivity of the lysate was measured using a γ counter. After the radioactivity measurement, the lysate was loaded into a 96-well plate at a volume of 10 μL per well, the protein amount was measured by the BCA method, and the number of cells was corrected based on the protein amount. Absorbance was measured by MultiScanFC (Thermo Fisher). The uptake level of ^211At-AAMT-OMe or ^211At-AAMT into the cells (number of radioactivity counts/protein amount) was calculated."}, "[1]": {"tested_on": "human pancreatic cancer cell line (PANC1)", "test": "Imaging of mice subcutaneously transplanted with human pancreatic cancer cell line PANC1", "type": "in vivo, human (PANC1) in Balb/c-nu/nu mice", "conditions": "2 hours after administration, 0.5 MBq/0.2 mL per mouse, tail vein", "excerpt": "Immunodeficient mice (Balb/c-nu/nu, 5-week-old, male) were habituated for 1 week and then subcutaneously transplanted with a human pancreatic cancer cell line (PANC1, 1×10^7 cells/mouse). After the transplantation, the mice were observed over time until tumor reached a size large enough for imaging (about 1000 mm^3). […] Two hours after administration, the mice were anesthetized by isoflurane inhalation, and planar images were taken using a γ camera (E-cam, Siemens)."}, "[2]": {"tested_on": "human pancreatic cancer cell line (PANC1)", "test": "Therapeutic test on PANC1 subcutaneously transplanted mice (28 days)", "type": "in vivo, human (PANC1) in Balb/c-nu/nu mice", "conditions": "1 MBq/0.2 mL per mouse, tail vein", "source_text": "Twenty-eight days after administration, the mice were euthanized and subjected to autopsy, and tumor masses were isolated after organs were examined for abnormalities."}, "[3]": {"test": "Measurement of accumulated amounts of 211At-labeled compounds in PANC1 tumor-bearing mice", "type": "in vivo, human (PANC1) in Balb/c-nu/nu mice", "conditions": "tumor, iv, 0.1 MBq/animal, 0.1 MBq/0.2 mL per mouse, tail vein, read-out: tumor accumulation", "protocol": "(§1) Radiation doses before and after the administration were measured, and a difference between them was defined as an injected dose (ID). Ten minutes and one hour after administration, the mice were anesthetized by isoflurane inhalation, the tumors were isolated by autopsy in chronological order, and their radiation doses and weights were measured using a gamma counter (2480 Wizard^2, PerkinElmer) and a semimicro scale (Shimadzu Corporation, readability 10 μg), respectively. For comparison between accumulated amounts, accumulated amounts per unit amount (% ID/g) were calculated.\n(§2) In Table 1, the amounts of the ^211At-labeled compounds accumulated in tumors of the PANC1 tumor-bearing models (% ID/g) are shown. It should be noted that in Table 1, “OMe” is ^211At-AAMT-OMe, “OEt” is ^211At-AAMT-OEt, “OPr” is ^211At-AAMT-OPr, and “OH” is ^211At-AAMT."}, "PANC1 tumor": {"tested_on": "PANC1 tumor", "test": "Measurement of accumulated amounts of 211At-labeled compounds in PANC1 tumor-bearing mice", "type": "in vivo, human (PANC1) in Balb/c-nu/nu mice", "protocol": "as §1, §2"}, "[4]": {"tested_on": "human pancreatic cancer cell line (PANC1)", "type": "in vivo, human (PANC1) in Balb/c-nu/nu mice", "conditions": "1 MBq/0.2 mL per mouse, tail vein", "source_text": "The experiment was terminated 21 days after administration."}, "[5]": {"tested_on": "CDDP-resistant A549 (A549 CDDP-r)", "conditions": "48 hours, 37 °C, Cell counting kit-8", "protocol": "Two days before experiment, A549 and CDDP-resistant A549 (A549 CDDP-r) were each seeded in a 96-well plate at a concentration of 1×10^5 cells/mL. ^211At-AAMT-OMe or ^211At-AAMT adjusted to a predetermined concentration was added to A549 cells and CDDP-resistant A549 cells, respectively, and the cells were cultured (CO2 5%, 37 °C). After the cultivation for 48 hours, Cell counting kit-8 (DOJINDO LABORATORIES) was added. After the addition, the cells were cultured at 37 °C for 1 hour, and cell viability was measured using absorbance at 450 nm as an indicator."}, "A549": {"tested_on": "A549", "test": "Therapeutic test on mice subcutaneously transplanted with A549", "type": "in vivo, human (A549) in Balb/c-nu/nu mice", "conditions": "A549 tumor weight 30 days after administration, 0.5 MBq/0.2 mL per mouse, tail vein", "description": "Immunodeficient mice (Balb/c-nu/nu, 5-week-old, male) were habituated for 1 week and then subcutaneously transplanted with A549 or CDDP-resistant A549 (A549 CDDP-r) (1×10^7 cells/mouse). The mice were observed over time until engraftment of tumors was confirmed (50 to 100 mm^3), and when the tumors reached a predetermined size, ^211At-AAMT-OMe or ^211At-AAMT diluted with water for injection to 0.5 MBq/0.2 mL per mouse was administered via tail vein. Thirty days after administration, the mice were euthanized and tumor masses were isolated. After fat tissue and the like were trimmed off, the wet weights of the isolated tumor masses were measured to make a histogram."}, "[6]": {"tested_on": "CDDP-resistant A549 (A549 CDDP-r)", "conditions": "A549 CDDP-r tumor weight 30 days after administration, 0.5 MBq/0.2 mL per mouse, tail vein", "protocol": "(§3) Thirty days after administration, the mice were euthanized and tumor masses were isolated. After fat tissue and the like were trimmed off, the wet weights of the isolated tumor masses were measured to make a histogram."}, "[7]": {"tested_on": "Gem-resistant PANC1 (PANC1 Gem-r)", "conditions": "in vivo", "protocol": "as §3"}}, "note": "Read-outs that look alike come from different tables or passages of the source."}
{"molecule": "COc1ccc(C[C@](C)(N)C(=O)O)cc1[At]", "note": "[^211At-AAMT-OMe, (S)-3-astato(^211At)-O-methyl-α-methyltyrosine]", "values": [{"measurement": "uptake level into cells (number of radioactivity counts/protein amount)", "setting": "HEK293-hLAT1; HEK293-hLAT1 cells (CTL), 30 minutes, 37 °C", "value": "strongly taken up into HEK293-hLAT1 cells (CTL), comparable to ^211At-AAMT"}, {"measurement": "specificity of uptake", "setting": "HEK293-hLAT1; HEK293-hLAT1 cells, without and with BCH or AMT", "value": "specifically taken up into HEK293-hLAT1 cells"}, {"measurement": "accumulation in tumor site (planar γ camera image)", "setting": "[1]", "value": "accumulated in the tumor sites, with a larger amount of ^211At-AAMT-OMe remaining in the tumor"}, {"measurement": "anti-tumor effect", "setting": "[2]; 28 days after administration", "value": "slightly higher than that of ^211At-AAMT"}, {"measurement": "tumor size", "setting": "[2]; 28 days after administration", "value": "slightly smaller than that of the ^211At-AAMT administration group"}, {"measurement": "mouse body weight", "setting": "[2]; up to 28 days after administration", "value": "tends to slightly reduce, but the body weight reduction is significantly smaller than that of the control group, and is therefore not at a level regarded as a side effect"}, {"measurement": "tissue uptake at 10 min", "setting": "[3]; 10 minutes after administration", "value": 2.59, "unit": "%ID/g"}, {"measurement": "tissue uptake at 1 h", "setting": "[3]; 1 hour after administration", "value": 3.78, "unit": "%ID/g"}, {"measurement": "accumulation in the tumor sites compared to 211At-AAMT", "setting": "PANC1 tumor; 10 minutes and 1 hour after administration, tail vein", "value": "more highly accumulated in the tumor sites than ^211At-AAMT"}, {"measurement": "retention at tumor sites", "setting": "PANC1 tumor; compared to 211At-AAMT", "value": "superior retention at tumor sites compared to ^211At-AAMT"}, {"measurement": "apparent toxicity", "setting": "[4]; 21 days", "value": "apparent toxicity induced by their administration was not observed"}, {"measurement": "lesions other than tumor at autopsy", "setting": "[4]; 21 days", "value": "lesions other than tumor were not observed"}, {"measurement": "mouse body weight", "setting": "[4]; up to 21 days after administration", "value": "gently increased"}, {"measurement": "cytotoxicity", "setting": "[5]", "value": "more remarkable cytotoxicity against A549 CDDP-r"}, {"measurement": "anti-tumor effect", "setting": "A549", "value": "comparable to that of ^211At-AAMT on A549"}, {"measurement": "anti-tumor effect", "setting": "[6]", "value": "higher than that of ^211At-AAMT on CDDP-resistant A549"}, {"measurement": "anti-tumor effect", "setting": "[7]", "value": "higher on Gem-resistant PANC1 (PANC1 Gem-r) than on PANC1"}, {"measurement": "tumor growth inhibiting effect", "setting": "[7]", "value": "higher tumor growth inhibiting effect on the gemcitabine-resistant PANC1 cells"}]}
